In patent publication US20100297229A1, “TAPENTADOL COMPOSITIONS” (Nectid Inc., priority 2007, published 2010):
Counter-ions that a name gives are not always drawn.

What was measured:
[1] = tested on: Chronic non-cancer pain (CNCP); experiment: Study III: clinical trial of tapentadol and tramadol combination, VAS pain score; format: in vivo, human; conditions: mean ± SD, VAS 0-100 mm, N = 10
Protocol: The following general methods were used in all of the studies;
Randomization: Randomization was performed with computer-generated random numbers in blocks of 10. Randomization codes of the monotherapy or combination therapy treatments were placed in sequentially numbered, opaque, sealed envelopes in the biopsy center. When a patient was recruited and consented, the next numbered envelope was opened by the operator, who had no knowledge of the randomization code before the treatment
Scale and Measurement: Pain was assessed using a visual analogue scale (VAS) graded from 0-100 mm. Pain scoring was performed every visit Week 1, Week 2, Week 3, Week 4, Week 5 and Week 6. The patients were taught with a standard method by the physician how to use a VAS scoring from 0 to 100 mm to grade the intensity of pain experienced during the treatment. On that scale, the left endpoint, 0, was defined as no pain and the right endpoint 100, as the worst pain the patient could imagine. There were no further marks on the line. The intensity of pain was indicated by the distance in millimeters from the left end. Patients were asked to grade the pain intensity after the administration of drugs and the pain was assessed by the patient in their weekly pain score diary. The doctors who prescribed the medicines obtained all the VAS forms for that specific patient.
Statistical Analysis: Data are expressed as means±SD. Differences in VAS were analyzed with use of the unpaired Student t test and differences in pain score reductions between the two groups were analyzed with use of the Mann-Whitney U test for the median difference. Similar statistical tests were used for between group comparisons of other outcome variables as appropriate. A two tailed P value of less than. […] SAS software was used for the statistical analysis.
The Fixed dose combination of slow release tapentadol hydrochloride and tramadol hydrochloride was tested in a human clinical trial. In this study III, 40 patients were used in a clinical trial were suffering from Chronic non-cancer pain (CNCP), defined as pain for longer than 6 months, including neuropathic pain, osteoarthritis, rheumatoid arthritis, fibromyalgia, and back and musculoskeletal pain were included in the clinical trial. No effort was made to segregate the patients based on the type of pain nor did we evaluate the extent of pain relief on the basis of pain type. Those patients with migraines, dental pain, abdominal pains (from chronic pancreatitis, kidney stones, etc.) and ischemic pain from vascular disease were excluded because they are usually not classified as CNCP. Patients with history of addiction (alcohol or drugs) were excluded from the trials.

[2] = tested on: pain intensity associated with knee osteoarthritis; experiment: Study I: 6-week clinical trial of tapentadol and NSAID combination, Arthritis Pain Intensity VAS; format: in vivo, human; conditions: primary endpoint; average of Weeks 1-6; knee osteoarthritis patients; FIG. 2

Compound	VAS Pain Score ([1]; time 0 hours)	VAS Pain Score ([1]; time 3 hours)	VAS Pain Score ([1]; time 6 hours)	VAS Pain Score ([1]; time 9 hours)	VAS Pain Score ([1]; time 12 hours)	VAS Pain Score ([1]; time 15 hours)	VAS Pain Score ([1]; time 18 hours)	VAS Pain Score ([1]; time 21 hours)	VAS Pain Score ([1]; time 24 hours)	LS Mean change from baseline over 6 weeks in the arthritis pain intensity VAS [2]
COc1cccc([C@]2(O)CCCC[C@H]2CN(C)C)c1 (racemic) [Tramadol, (±) cis-2-[(dimethylamino)methyl]-1-(3-methoxyphenyl)cyclo-hexanol hydrochloride]	32.4 ± 21.2	23.1 ± 20.1	18.8 ± 20.6	14.9 ± 17.2	13.1 ± 21.2	13.9 ± 19.2	15.4 ± 21.3	14.5 ± 19.2	13.9 ± 19.2	
COc1ccc2cc([C@H](C)C(=O)O)ccc2c1 [Naproxen, (+)-(S)-2-(6-methoxy-naphthalen-2-yl) propanoic acid]										28%
CC[C@@H](c1cccc(O)c1)[C@@H](C)CN(C)C [Tapentadol, 3-(3-Dimethylamino-1-ethyl-2-methyl-propyl)-phenol]	33.7 ± 18.2	24.8 ± 19.1	21.1 ± 22.9	14.2 ± 23.1	11.2 ± 20.9	11.0 ± 16.2	9.5 ± 17.8	10.4 ± 16.2	11.6 ± 16.2	38%
